Results as given in patent US9090617B1, “Agonists of Src homology-2 containing protein tyrosine phosphatase-1 and treatment methods using the same” (National Taiwan University, priority 2011, dated 2015).

system: p-STAT3, cyclin D1, survivin, Mc1-1; test: Western blot of STAT3-related proteins in HCC cells; format: cell-based; conditions: PLC5 cells, 5 and 10 μM, 24 h
Experimental: Cells were treated with various compounds at 5 and 10 μM for 24 h. Cell lysates were analyzed by western blot.
HCC cells treated with SC-43 (10 μM for 24 h) were collected with RIPA lysis buffer. Antibodies for immunoblotting such as cyclin D1 was purchased from Santa Cruz Biotechnology. Other antibodies such as survivin, phospho-STAT3 (Tyr705), STAT3, Mc1-1, SOCS1, and SOCS3 were from Cell Signaling.

SMILES	cyclin D1 and survivin level
O=[N+]([O-])c1cc(C(F)(F)F)ccc1S(=O)(=O)Nc1ccc(Oc2ccnc3ccccc23)cc1 [Compound 12, 2-Nitro-N-(4-(quinolin-4-yloxy)phenyl)-4-(trifluoromethyl)benzenesulfonamide]	had no effect on either protein

system: HCC cells; test: cells; conditions: not given
Description: Points, mean; bars, SD (n=6).
Points, mean; bars, SD ([…]). […] The N-SH2 domain is in orange, the C-SH2 domain is in marine, the PTP domain is in hot pink, and the linkers between them are in gray. […] ELISA, enzyme-linked immunosorbent assay.

SMILES	viability of HCC cells / cytotoxicity
N#Cc1ccc(Oc2cc(NC(=O)Nc3ccc(Cl)c(C(F)(F)F)c3)ccc2F)cc1 [SC-111, 1-(4-chloro-3-(trifluoromethyl)phenyl)-3-(3-(4-cyanophenoxy)-4-fluorophenyl)urea]	exhibits antitumor effect in vitro

system: PLC5 cells; test: MTT assay for cell growth inhibition in PLC5 cells; format: cell-based; conditions: not given
Experimental: These compounds were analyzed by MTT assay for cell growth inhibition in the PLC5 cells.
Next, we changed the pyridine to a quinoline ring and amide linker to generate compounds 12-25. These compounds were also analyzed by MTT assay for cell growth inhibition in the PLC5 cells.

SMILES	IC50
Cc1cc(NC(=O)c2cc(C(F)(F)F)cc(C(F)(F)F)c2)ccc1Oc1ccnc2c([N+](=O)[O-])cccc12 [Compound 20, N-(3-Methyl-4-(8-nitroquinolin-4-yloxy)phenyl)-3,5-bis(trifluoromethyl)benzamide]	> 40 µM
CC(=O)Nc1cccc2c(Oc3cccc(NC(=O)c4cc(C(F)(F)F)cc(C(F)(F)F)c4)c3)ccnc12 [Compound 25, N-(3-(8-Acetamidoquinolin-4-yloxy)phenyl)-3,5-bis(trifluoromethyl)benzamide]	10.8 µM
O=[N+]([O-])c1cccc2c(Oc3ccc(NS(=O)(=O)c4ccc(C(F)(F)F)cc4Br)cc3)ccnc12 [Compound 15, 2-Bromo-N-(4-(8-nitroquinolin-4-yloxy)phenyl)-4-(trifluoromethyl)benzenesulfonamide]	> 40 µM
CNC(=O)c1cc(Oc2ccc(NS(=O)(=O)c3ccc(C(C)(C)C)cc3)cc2)ccn1 [Compound 5, 4-(4-(4-tert-Butylphenylsulfonamido)phenoxy)-N-methylpicolinamide]	> 40 µM
CNC(=O)c1cc(Oc2ccc(NS(=O)(=O)c3ccc([N+](=O)[O-])cc3)cc2)ccn1 [Compound 3, N-Methyl-4-(4-(4-nitrophenylsulfonamido)phenoxy)picolinamide]	> 40 µM
CNC(=O)c1cc(Oc2ccc(NC(=O)c3ccc(C(F)(F)F)cc3)cc2)ccn1 [Compound 11, N-Methyl-4-(4-(4-(trifluoromethyl)benzamido)phenoxy)picolinamide]	> 40 µM
O=C(Nc1ccc(Oc2ccnc3c([N+](=O)[O-])cccc23)cc1)c1cc(C(F)(F)F)ccc1F [Compound 19, 2-Fluoro-N-(4-(8-nitroquinolin-4-yloxy)phenyl)-5-(trifluoromethyl)benzamide]	> 40 µM
Nc1cccc2c(Oc3cccc(NC(=O)c4cc(C(F)(F)F)cc(C(F)(F)F)c4)c3)ccnc12 [Compound 24, N-(3-(8-Aminoquinolin-4-yloxy)phenyl)-3,5-bis(trifluoromethyl)benzamide]	19 µM
CNC(=O)c1cc(Oc2ccc(NS(=O)(=O)c3ccccc3[N+](=O)[O-])cc2)ccn1 [Compound 8, N-Methyl-4-(4-(2-nitrophenylsulfonamido)phenoxy)picolinamide]	> 40 µM
O=C(Nc1cccc(Oc2ccnc3c([N+](=O)[O-])cccc23)c1)c1cc(C(F)(F)F)cc(C(F)(F)F)c1 [Compound 23, N-(3-(8-Nitroquinolin-4-yloxy)phenyl)-3,5-bis(trifluoromethyl)benzamide]	> 40 µM
CNC(=O)c1cc(Oc2ccc(NS(=O)(=O)c3ccccc3)cc2)ccn1 [Compound 2, N-Methyl-4-(4-(phenylsulfonamido)phenoxy)picolinamide]	> 40 µM
CNC(=O)c1cc(Oc2ccc(NS(=O)(=O)c3ccc4ccccc4c3)cc2)ccn1 [Compound 6, N-Methyl-4-(4-(naphthalene-2-sulfonamido)phenoxy)picolinamide]	> 40 µM
CC(=O)Nc1cccc2c(Oc3ccc(NC(=O)c4cc(C(F)(F)F)cc(C(F)(F)F)c4)cc3C)ccnc12 [Compound 22, N-(4-(8-Acetamidoquinolin-4-yloxy)-3-methylphenyl)-3,5-bis(trifluoromethyl)benzamide]	> 40 µM
O=S(=O)(Nc1ccc(Oc2ccnc3ccccc23)cc1)c1ccc(C(F)(F)F)cc1Br [Compound 14, 2-Bromo-N-(4-(quinolin-4-yloxy)phenyl)-4-(trifluoromethyl)benzenesulfonamide]	> 40 µM
O=[N+]([O-])c1cc(C(F)(F)F)ccc1S(=O)(=O)Nc1ccc(Oc2ccnc3c([N+](=O)[O-])cccc23)cc1 [Compound 13, 2-Nitro-N-(4-(8-nitroquinolin-4-yloxy)phenyl)-4-(trifluoromethyl)benzenesulfonamide]	> 40 µM
O=C(Nc1ccc(Oc2ccnc3ccccc23)cc1)c1cc(C(F)(F)F)cc(C(F)(F)F)c1 [Compound 16, N-(4-(Quinolin-4-yloxy)phenyl)-3,5-bis(trifluoromethyl)benzamide]	16 µM
CNC(=O)c1cc(Oc2ccc(NS(=O)(=O)c3ccc(F)cc3)cc2)ccn1 [Compound 4, 4-(4-(4-Fluorophenylsulfonamido)phenoxy)-N-methylpicolinamide]	> 40 µM
O=C(Nc1ccc(Oc2ccnc3c([N+](=O)[O-])cccc23)cc1)c1cc(C(F)(F)F)cc(C(F)(F)F)c1 [Compound 17, N-(4-(8-Nitroquinolin-4-yloxy)phenyl)-3,5-bis(trifluoromethyl)benzamide]	> 40 µM
O=C(Nc1ccc(Oc2ccnc3ccccc23)cc1)c1cc(C(F)(F)F)ccc1F [Compound 18, 2-Fluoro-N-(4-(quinolin-4-yloxy)phenyl)-5-(trifluoromethyl)benzamide]	21.1 µM
CNC(=O)c1cc(Oc2ccc(NS(=O)(=O)c3ccc(C(F)(F)F)cc3Br)cc2)ccn1 [Compound 7, 4-(4-(2-Bromo-4-(trifluoromethyl)phenylsulfonamido)phenoxy)-N-methylpicolinamide]	> 40 µM
O=[N+]([O-])c1cc(C(F)(F)F)ccc1S(=O)(=O)Nc1ccc(Oc2ccnc3ccccc23)cc1 [Compound 12, 2-Nitro-N-(4-(quinolin-4-yloxy)phenyl)-4-(trifluoromethyl)benzenesulfonamide]	> 40 µM
CNC(=O)c1cc(Oc2ccc(NC(=O)c3cc(F)ccc3C(F)(F)F)cc2)ccn1 [Compound 10, 4-(4-(5-Fluoro-2-(trifluoromethyl)benzamido)phenoxy)-N-methylpicolinamide]	> 40 µM
Cc1cc(NC(=O)c2cc(C(F)(F)F)cc(C(F)(F)F)c2)ccc1Oc1ccnc2c(N)cccc12 [Compound 21, N-(4-(8-Aminoquinolin-4-yloxy)-3-methylphenyl)-3,5-bis(trifluoromethyl)benzamide]	25.4 µM
CNC(=O)c1cc(Oc2ccc(NC(=O)c3cc(C(F)(F)F)cc(C(F)(F)F)c3)cc2)ccn1 [Compound 9, 4-(4-(3,5-Bis(trifluoromethyl)benzamido)phenoxy)-N-methylpicolinamide]	> 40 µM

system: HCC cells; test: Apoptosis analysis by flow cytometry (sub-G1); format: cell-based; conditions: HCC cells, 24 h
Experimental: Apoptotic cells were measured by flow cytometry (sub-G1). After treatment with various compounds, cells were trypsinized, collected by centrifugation and resuspended in PBS. After centrifugation, the cells were washed in PBS and resuspended in […] (PI) staining solution. Specimens were incubated in the dark for 30 min at 37° C. and then analyzed with an EPICS Profile II flow cytometer (Coulter Corp., Hialeah, Fla.). All experiments were performed in triplicate
Collected cells were fixed in 75% Ethanol and stained with 20 ug/ml Propidium Iodide (PI). Sub-G1 analysis was performed by flow-cytometry. […] Points, mean; bars, SD (n=6).

SMILES	apoptosis (sub-G1)
N#Cc1ccc(Oc2cccc(NC(=O)C3(C(=O)Nc4cccc(Oc5ccc(C#N)cc5)c4)CC3)c2)cc1 [SC-67, N,N′-bis(3-(4-cyanophenoxyl)phenyl)cyclopropane-1,1-dicarboxamide]	has no activity in inducing cancer cells (PLC5) apoptosis
O=S(=O)(Nc1cccc(Oc2ccn3cc(-c4ccccc4)nc3c2)c1)c1cccc(C(F)(F)F)c1 [SC-37, N-(3-(2-phenylimidazo[1,2-a]pyridin-7-yloxy)phenyl)-3-(trifluoromethyl)benzenesulfonamide]	has no activity in inducing cancer cell apoptosis
